Literature values as cited in US20050026871A1 (priority 2002, published 2005).

Tests used:
[1] = reported in the literature; cited from earlier work
[2] = Physicians' Desk Reference, Rocaltrol Oral Solution; cited from earlier work

| Compound | pH at which alendronate is best absorbed [1] | time to peak serum concentrations after ingestion [2] |
| --- | --- | --- |
| NCCCC(O)(P(=O)(O)O)P(=O)(O)O [Alendronate, alendronate] | ~6 | – |
| C=C1/C(=C\C=C2/CCC[C@]3(C)[C@@H]([C@H](C)CCCC(C)(C)O)CC[C@@H]23)C[C@@H](O)C[C@@H]1O [calcitriol, 1α,25-dihydroxyvitamin D3] | – | three to six |
